Laboratory results reported in US8574563B2 (Bristol-Myers Squibb Company, priority 2006, dated 2013).
Like-named read-outs stand apart in the source and are kept apart here.

Tested on: HCV 1b-377-neo replicon cells
Test: HCV replicon assay, HCV 1b-377-neo replicon cells (1b FRET)
Assay type: cell-based, Hepatitis C virus genotype 1b
Settings: HCV 1b-377-neo replicon cells, HCV 1b genotype, read-out: EC50 range against HCV 1b (Table 2, Range)
Outline: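 Compounds tested in HCV genotype 1b-377-neo replicon cells with a FRET read-out. Cells resistant to a reference NS5A inhibitor through a Y2065H NS5A mutation were run alongside wild-type cells.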

Row | SMILES | EC50 (Hepatitis C virus) [nM] | EC50 [nM]
1 | CN(C)[C@@H](C(=O)N1CCC[C@H]1c1ncc(-c2ccc(-c3ccc(-c4cnc([C@@H]5CCCN5C(=O)c5cccc(N6CCCC6)c5)[nH]4)cc3)cc2)[nH]1)c1ccccc1 [Example 94-27, (1R)-N,N-dimethyl-2-oxo-1-phenyl-2-((2S)-2-(5-(4′-(2-((2S)-1-(3-(1-pyrrolidinyl)benzoyl)-2-pyrrolidinyl)-1H-imidazol-5-yl)-4-biphenylyl)-1H-imidazol-2-yl)-1-pyrrolidinyl)ethanamine] | 1 to 99 | 
2 | COC(=O)N[C@@H](C(=O)N1CCC[C@H]1c1ncc(-c2ccc(-c3ccc(-c4cnc([C@@H]5CCCN5C(=O)[C@H](NC(=O)OC)c5ccccc5Cl)[nH]4)cc3)cc2)[nH]1)c1ccccc1Cl [Example 24-3, dimethyl (4,4′-biphenyldiylbis(1H-imidazole-5,2-diyl(2S)-2,1-pyrrolidinediyl((1R)-1-(2-chlorophenyl)-2-oxo-2,1-ethanediyl)))biscarbamate] | 0.001 to 0.999 | 
3 | COC(=O)N[C@@H](C)C(=O)N1CCC[C@H]1c1ncc(-c2ccc(-c3ccc(-c4cnc([C@@H]5CCCN5C(=O)[C@@H](Nc5ncccn5)C(C)C)[nH]4)cc3)cc2)[nH]1 [cj-11a, methyl ((1S)-1-methyl-2-oxo-2-((2S)-2-(5-(4′-(2-((2S)-1-(N-2-pyrimidinyl-L-valyl)-2-pyrrolidinyl)-1H-imidazol-5-yl)-4-biphenylyl)-1H-imidazol-2-yl)-1-pyrrolidinyl)ethyl)carbamate] | 0.001 to 0.999 | 
4 | COC(=O)N[C@H](C(=O)N1CCC[C@H]1c1ncc(-c2ccc(-c3ccc(-c4cnc([C@@H]5CCCN5C(=O)[C@@H](NC(=O)OC)C(C)(C)O)[nH]4)cc3)cc2)[nH]1)C(C)(C)O [Example M14, methyl ((1S)-2-hydroxy-1-(((2S)-2-(5-(4′-(2-((2S)-1-((2S)-3-hydroxy-2-((methoxycarbonyl)amino)-3-methylbutanoyl)-2-pyrrolidinyl)-1H-imidazol-5-yl)-4-biphenylyl)-1H-imidazol-2-yl)-1-pyrrolidinyl)carbonyl)-2-methylpropyl)carbamate] | 100 to 999 | 
5 | COC(=O)N[C@H](C(=O)N1[C@H](c2ncc(-c3ccc(-c4ccc(-c5cnc([C@@H]6C[C@@H]7C[C@@H]7N6C(=O)[C@@H](NC(=O)OC)C(C)(C)C)[nH]5)cc4)cc3)[nH]2)C[C@@H]2C[C@@H]21)C(C)(C)C [Example M128, methyl ((1S)-1-(((1S,3S,5S)-3-(5-(4′-(2-((1S,3S,5S)-2-((2S)-2-((methoxycarbonyl)amino)-3,3-dimethylbutanoyl)-2-azabicyclo[3.1.0]hex-3-yl)-1H-imidazol-5-yl)-4-biphenylyl)-1H-imidazol-2-yl)-2-azabicyclo[3.1.0]hex-2-yl)carbonyl)-2,2-dimethylpropyl)carbamate] | 1 to 99 | 
6 | CCN(CC)[C@@H](C(=O)N1CCC[C@H]1c1ncc(-c2ccc(-c3ccc(-c4cnc([C@@H]5CCCN5C(=O)[C@H](NC(=O)OC)c5ccccc5)[nH]4)c(F)c3)cc2F)[nH]1)c1ccccc1 [Example D64, methyl ((1R)-2-((2S)-2-(5-(4′-(2-((2S)-1-((2R)-2-(diethylamino)-2-phenylacetyl)-2-pyrrolidinyl)-1H-imidazol-5-yl)-3,3′-difluoro-4-biphenylyl)-1H-imidazol-2-yl)-1-pyrrolidinyl)-2-oxo-1-phenylethyl)carbamate] | 0.001 to 0.999 | 
7 | O=C(OCc1ccccc1)N1CCN(C(C(=O)N2CCC[C@H]2c2ncc(-c3ccc(-c4ccc(-c5c[nH]c([C@@H]6CCCN6C(=O)[C@H]6CCCO6)n5)cc4)cc3)[nH]2)c2ccccc2)CC1 (single isomer, unassigned) [Example 103-5] |  | 0.001 to 0.999
8 | COC(=O)N[C@@H](C)C(=O)N1CCC[C@H]1c1ncc(-c2ccc(-c3ccc(-c4cnc([C@@H]5CCCN5C(=O)[C@@H]5CCN5C(=O)OC)[nH]4)cc3)cc2)[nH]1 [cj-49, methyl (2S)-2-(((2S)-2-(5-(4′-(2-((2S)-1-(N-(methoxycarbonyl)-L-alanyl)-2-pyrrolidinyl)-1H-imidazol-5-yl)-4-biphenylyl)-1H-imidazol-2-yl)-1-pyrrolidinyl)carbonyl)-1-azetidinecarboxylate] | 1 to 99 | 
